Results from PMC5538625, “Perception of root‐active CLE peptides requires CORYNE function in the phloem vasculature” (EMBO Reports, 2017).
Read-outs that look alike come from different tables or passages of the source. Where no end group is shown, it is not given here. [ ]: non-standard residue; d: D form. Hyp = O=C(O)[C@@H]1C[C@@H](O)CN1

Legend:
[1] = test system: Arabidopsis Col-0 seedlings (primary root); details: cited from earlier work
Procedure: page 3: EMBO reports - Peer Review Process File - EMBO-2016-43535 including a report from the same group (Kinoshita et al, 2007 Plant Cell Physiol 48:1821; Whitford et al, 2008 PNAS 105:18625; Depuydt et al. 2013 PNAS 110:7074) where CLE6 peptides exert the root shortening activity only at a very high concentration (10 µM). Results on CLE8, CLE16, CLE17, CLE20 and CLE22 are also different from the previous report (Depuydt et al. 2013). […] Please indicate the meaning of the asterisks in column "Col-0" in Figure 2B, "***a" and "***b" in Figure 2C, describe all the peptide sequences used in this study and re-confirm if the results are correct and reproducible. The details are the following.” ….and subordinate comments.

BAM1 = details: CLE9gp arabinosylated, CLE9p non-arabinosylated; ref Shinohara et al., 2012; cited from earlier work
Text: “6. We'd also like the authors to answer or discuss following aspects in the discussion part.” “6-1. How do you explain the insensitivity of crn to all CLE peptides? Does it control expression of CLV as well?” At this point we can only speculate on this. As we highlight in the discussion, maybe the expression of other, yet to be identified CLE receptors in the root also depends on CR ...

[2] = target: IDA peptide (Arabidopsis thaliana) (UniProt Q8LAD7); details: cited from earlier work
Sequence of IDA peptide (Arabidopsis thaliana) (Q8LAD7 27-77): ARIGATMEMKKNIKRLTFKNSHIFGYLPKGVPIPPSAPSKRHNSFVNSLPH

[3] = target: IDA peptide (Arabidopsis thaliana) (UniProt Q8LAD7); details: cited from earlier work; remark: listed apart in the source
[4] = test system: Arabidopsis Col-0 seedlings (primary root); assay: Root growth assay, wild type (Col-0); type: in vivo, Arabidopsis thaliana; details: 50 nM peptide, 9-day-old seedlings, primary root length, n ≥ 12
Procedure: Plant tissue culture, plant transformation, and common molecular biology procedures such as genomic DNA isolation, genotyping, sequencing, and peptide or inhibitor treatments were performed according to standard procedures as previously described 9, 19, 44, 65.
All mutant and transgenic lines were in the Arabidopsis Columbia‐0 (Col‐0) background. The following previously described mutant alleles were used throughout: brx‐2, bam3‐2, brx‐2 bam3, clv2‐1, serk1‐1 and serk1‐3, serk2‐1, serk3‐1, serk4‐1, serk5‐1 9, 47, 59, 66, 67, 68. The crn loss‐of‐function mutant allele (crn‐10) carries a single nucleotide insertion in front of the 7th codon, which leads to a frameshift and three subsequent premature stop codons after amino acid 10 52.

[5] = target: T1, BAM3 extracellular (LRR) domain (30–651) (Arabidopsis thaliana, UniProt O65440); assay: biochemical; type: binding
T1 construct: azurocidin signal peptide (N); made in house; host or cells: Trichoplusia ni Tnao38 insect cells (baculovirus, secreted)
Procedure: Isothermal titration calorimetry assays were run on a Nano ITC (1 ml standard cell; 250 μl syringe; TA Instruments) at 25°C in 20 mM sodium citrate pH 5 and 150 mM NaCl for all ITCs with BAM3 and 10 mM Bis–Tris pH 6 and 100 mM NaCl for the ITC with PXY. […] For each experiment, 10 μl was repetitively injected into the cell in 150 s time intervals. The measured heat rates for the BAM3‐ECD vs. CLE45, BAM3^QYY vs. CLE45, BAM3‐ECD vs. Y‐CLE45, BAM3‐ECD vs. CLV3, BAM3‐ECD vs. Y‐CLV3, and PXY‐ECD vs. CLE41/44 were corrected by subtracting the heat rates measured for injecting CLE45, Y‐CLE45, CLV3, Y‐CLV3, or CLE41/44 into the ITC buffer, respectively. The data for the BAM3‐ECD + CLE45 vs. SERK1‐ECD measurement was corrected by subtracting heat rates acquired by injecting SERK1‐ECD into a cell containing CLE45. Data analyses and modeling were carried out using the software supplied by the manufacturer (NanoAnalyze, version 3.5).

[6] = target: T2, BAM3 extracellular domain (BAM3-ECD) (Arabidopsis thaliana, UniProt O65440 30-651); assay: ITC
T2 chain: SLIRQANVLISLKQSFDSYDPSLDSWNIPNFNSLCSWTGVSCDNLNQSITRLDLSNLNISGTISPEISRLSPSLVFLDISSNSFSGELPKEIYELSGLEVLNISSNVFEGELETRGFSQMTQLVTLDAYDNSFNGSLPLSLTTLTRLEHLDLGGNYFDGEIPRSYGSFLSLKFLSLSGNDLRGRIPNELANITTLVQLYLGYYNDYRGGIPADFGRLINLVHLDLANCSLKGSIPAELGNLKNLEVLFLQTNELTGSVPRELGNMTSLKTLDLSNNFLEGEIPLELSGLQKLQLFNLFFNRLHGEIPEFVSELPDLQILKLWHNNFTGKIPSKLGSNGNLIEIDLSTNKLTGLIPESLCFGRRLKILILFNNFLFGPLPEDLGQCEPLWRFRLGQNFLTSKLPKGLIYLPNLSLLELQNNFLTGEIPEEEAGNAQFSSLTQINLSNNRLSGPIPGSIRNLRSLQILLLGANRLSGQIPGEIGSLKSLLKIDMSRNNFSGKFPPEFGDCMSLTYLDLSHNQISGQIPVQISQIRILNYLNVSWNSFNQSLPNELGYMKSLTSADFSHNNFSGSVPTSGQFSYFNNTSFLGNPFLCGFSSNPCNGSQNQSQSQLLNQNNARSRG

[7] = target: T3, BAM3 extracellular domain (BAM3-ECD) (Arabidopsis thaliana, UniProt O65440 30-651); assay: ITC; peptide titrated (10 μl injections, 150 s intervals) into the BAM3 ectodomain in the cell; Nano ITC, 25°C, 20 mM sodium citrate pH 5, 150 mM NaCl; details: both partners purified
T3 construct: Cloned in a modified pFastBac1 with an N-terminal azurocidin signal peptide for secretion; MALDI-TOF mass 94,586 Da; also called BAM3 LRR domain; BAM3 ectodomain; source: Trichoplusia ni Tnao38 cells, secreted, purified (Ni2+, StrepII, size-exclusion chromatography)
T3 sequence (looked up): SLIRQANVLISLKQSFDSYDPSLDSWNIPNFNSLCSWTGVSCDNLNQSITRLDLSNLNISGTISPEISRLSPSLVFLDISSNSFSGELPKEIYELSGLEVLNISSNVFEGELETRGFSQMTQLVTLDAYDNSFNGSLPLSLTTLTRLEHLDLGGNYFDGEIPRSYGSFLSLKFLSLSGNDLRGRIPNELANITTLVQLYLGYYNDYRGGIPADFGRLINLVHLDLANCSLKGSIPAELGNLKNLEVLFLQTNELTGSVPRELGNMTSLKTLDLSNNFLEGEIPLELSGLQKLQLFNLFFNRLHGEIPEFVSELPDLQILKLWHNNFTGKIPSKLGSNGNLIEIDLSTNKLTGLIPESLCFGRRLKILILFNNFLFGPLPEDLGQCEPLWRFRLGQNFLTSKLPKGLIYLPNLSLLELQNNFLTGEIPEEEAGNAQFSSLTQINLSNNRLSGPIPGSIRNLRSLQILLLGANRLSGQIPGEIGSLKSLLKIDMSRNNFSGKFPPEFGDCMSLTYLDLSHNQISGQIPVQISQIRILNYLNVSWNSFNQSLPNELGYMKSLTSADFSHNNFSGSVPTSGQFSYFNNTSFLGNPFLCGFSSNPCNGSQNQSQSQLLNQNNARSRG

[8] = target: T4, PXY extracellular domain (PXY-ECD) (Arabidopsis thaliana, UniProt Q9FII5 30-647); assay: ITC
T4 chain: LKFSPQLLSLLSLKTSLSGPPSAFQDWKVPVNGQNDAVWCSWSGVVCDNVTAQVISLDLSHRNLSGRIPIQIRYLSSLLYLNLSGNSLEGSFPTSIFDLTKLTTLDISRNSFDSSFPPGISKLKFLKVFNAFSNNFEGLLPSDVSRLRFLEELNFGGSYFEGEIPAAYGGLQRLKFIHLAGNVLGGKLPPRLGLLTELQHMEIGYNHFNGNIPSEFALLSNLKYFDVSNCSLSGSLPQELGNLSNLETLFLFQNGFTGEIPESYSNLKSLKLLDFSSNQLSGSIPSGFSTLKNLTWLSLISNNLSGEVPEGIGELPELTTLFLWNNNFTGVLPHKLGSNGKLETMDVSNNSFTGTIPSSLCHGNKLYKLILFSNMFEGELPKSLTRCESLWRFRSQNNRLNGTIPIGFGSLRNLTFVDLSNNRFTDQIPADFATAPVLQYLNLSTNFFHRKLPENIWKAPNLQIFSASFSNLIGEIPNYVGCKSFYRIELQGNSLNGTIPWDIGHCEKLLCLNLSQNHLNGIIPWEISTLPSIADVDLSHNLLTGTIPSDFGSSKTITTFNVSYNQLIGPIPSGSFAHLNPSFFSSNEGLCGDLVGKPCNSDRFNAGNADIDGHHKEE

[9] = target: T5, BAM3^QYY extracellular domain (BAM3^QYY-ECD) (Arabidopsis thaliana, UniProt O65440 30-651, Q226A | Y228A | Y231A); assay: ITC
T5 sequence: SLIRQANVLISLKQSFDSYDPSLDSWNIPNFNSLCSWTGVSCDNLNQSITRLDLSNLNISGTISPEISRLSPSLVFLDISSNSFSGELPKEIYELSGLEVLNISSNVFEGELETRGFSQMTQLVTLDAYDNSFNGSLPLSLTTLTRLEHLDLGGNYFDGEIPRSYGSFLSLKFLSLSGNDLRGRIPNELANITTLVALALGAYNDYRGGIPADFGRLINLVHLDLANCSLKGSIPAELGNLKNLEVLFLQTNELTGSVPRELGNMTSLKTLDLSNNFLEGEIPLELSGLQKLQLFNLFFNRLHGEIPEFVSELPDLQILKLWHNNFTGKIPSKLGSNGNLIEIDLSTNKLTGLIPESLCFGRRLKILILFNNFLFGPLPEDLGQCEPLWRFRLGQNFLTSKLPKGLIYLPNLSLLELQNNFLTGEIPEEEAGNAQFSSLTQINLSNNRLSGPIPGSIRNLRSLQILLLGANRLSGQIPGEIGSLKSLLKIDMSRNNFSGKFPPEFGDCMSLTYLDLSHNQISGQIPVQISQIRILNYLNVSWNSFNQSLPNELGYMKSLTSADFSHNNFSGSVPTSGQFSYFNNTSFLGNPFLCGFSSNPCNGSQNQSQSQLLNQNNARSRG

[10] = target: T6, BAM3^QYY extracellular domain (BAM3^QYY-ECD) (Arabidopsis thaliana, UniProt O65440 30-651, Q226A | Y228A | Y231A); assay: ITC; peptide titrated (10 μl injections, 150 s intervals) into the BAM3 ectodomain in the cell; Nano ITC, 25°C, 20 mM sodium citrate pH 5, 150 mM NaCl; details: both partners purified
T6 construct: Same construct as m1 (azurocidin signal peptide for secretion) with three point mutations; also called mutant BAM3^QYY; source: Trichoplusia ni Tnao38 cells, secreted, purified (Ni2+, StrepII, size-exclusion chromatography)
T6 sequence (looked up): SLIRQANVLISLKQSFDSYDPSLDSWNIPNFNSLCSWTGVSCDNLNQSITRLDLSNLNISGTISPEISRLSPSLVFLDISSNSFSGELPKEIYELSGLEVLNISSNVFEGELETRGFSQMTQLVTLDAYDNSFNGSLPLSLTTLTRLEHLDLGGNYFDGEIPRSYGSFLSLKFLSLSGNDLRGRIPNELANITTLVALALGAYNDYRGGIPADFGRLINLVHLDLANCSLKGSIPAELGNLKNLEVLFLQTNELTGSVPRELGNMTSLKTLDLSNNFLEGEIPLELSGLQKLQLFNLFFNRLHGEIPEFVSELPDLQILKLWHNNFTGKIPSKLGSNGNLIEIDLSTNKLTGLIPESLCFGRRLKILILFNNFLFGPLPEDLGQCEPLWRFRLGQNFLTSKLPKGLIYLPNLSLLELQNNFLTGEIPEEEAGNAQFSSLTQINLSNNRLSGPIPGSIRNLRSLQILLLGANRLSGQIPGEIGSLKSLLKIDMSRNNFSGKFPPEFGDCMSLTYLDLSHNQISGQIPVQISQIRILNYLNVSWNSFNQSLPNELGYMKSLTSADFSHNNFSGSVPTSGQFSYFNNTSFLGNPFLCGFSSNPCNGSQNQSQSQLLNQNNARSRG

## CLE6: CLE6 peptide (earlier reports; not assayed) (RVSPGGPDPQHH; ends and bridges not checked; UniProt Q8S8N3 70-81, looked up)
[1]; referee's comment, ref Kinoshita et al, 2007, Whitford et al, 2008, Depuydt et al. 2013
  concentration needed for root shortening activity: 10 µM
[1]; tissue culture, nM to low μM concentrations
  root growth suppression in words: not root-active

## CLE9gp: arabinosylated CLE9 (RLVPSGPNPLHN; ends and bridges not checked; also: arabinosylated, place not given here; UniProt Q9FZE4 109-120, looked up)
BAM1
  Kd: 2.2 nM

## CLE9p: non-arabinosylated CLE9 (RLVPSGPNPLHN; ends and bridges not checked; UniProt Q9FZE4 109-120, looked up)
BAM1
  Kd: 1.8 nM

## HAESA (from UniProt P47735)
[2]
  Kd: 20000 nM
[3]
  Kd: 350 nM

## RKVKTGSNPLHN [CLE20, CLE20: …]
[4]
  impact on root growth: significant, reproducible impact on root growth

## RKVPNGPDPIHN [CLE25, CLE25: …]
[4]
  impact on root growth: significant, reproducible impact on root growth

## RLVHTGPNPLHN [CLE16, CLE16: …]
[4]
  impact on root growth: significant, reproducible impact on root growth

## RLVPKGPNPLHN [CLE14, CLE14: …]
[4]
  impact on root growth: significant, reproducible impact on root growth

## RLVPSGPNPLHH [CLE13, CLE13: …]
[4]
  impact on root growth: significant, reproducible impact on root growth

## RLVPSGPNPLHN [CLE9/10, CLE9/10: …]
[4]
  impact on root growth: significant, reproducible impact on root growth

## RQIPTGPDPLHN [CLE18, CLE18: …]
[4]
  impact on root growth: significant, reproducible impact on root growth

## RQVPTGSDPLHH [CLE40, CLE40: …]
[4]
  impact on root growth: significant, reproducible impact on root growth

## RRVPTGPNPLHH [CLE8, CLE8: …]
[4]
  impact on root growth: significant, reproducible impact on root growth

## RRVRRGSDPIHN [CLE45]
[5]
  Kd: 116 ± 36 nM

## RSIPTGPNPLHN [CLE21, CLE21: …]
[4]
  impact on root growth: significant, reproducible impact on root growth

## RTVPSGPDPLHH [CLV3, CLV3: …]
[5]; ITC, 25°C, 20 mM sodium citrate pH 5, 150 mM NaCl, ± fitting errors (95% confidence interval), n.d.: not detectable
  N (stoichiometry): 0.978 +/- 0.23
[5]; ITC, Fig EV1C vs. CLE45
  reduction in binding affinity of CLV3 vs. CLE45 (fold): 70 fold
[4]
  impact on root growth: significant, reproducible impact on root growth

## RVVPSGPNPLHH [CLE11, CLE11: …]
[4]
  impact on root growth: significant, reproducible impact on root growth

B1: CLV3 peptide (ITC) (peptide)
peptide: RTV[Hyp]SG[Hyp]DPLHHH
notes: CLAVATA3 (CLV3) mature CLE peptide of Arabidopsis, 13 residues as printed for the ITC; the ITC peptide is printed with three C-terminal histidines; source: synthetic peptide (Peptide Specialty Laboratories, Heidelberg)
[6]
  Kd: 8620 nM
[7]
  Kd: ~10000 nM

B2: CLE41/44 peptide (ITC, unmodified as printed) (peptide)
peptide: HEVPSGPNPISN
notes: CLE41/44 (TDIF), mature 12-residue CLE peptide of Arabidopsis, the same from CLE41 and CLE44; The same peptide is also encoded by CLE44; also called TDIF; source: synthetic peptide (Peptide Specialty Laboratories, Heidelberg)
[8]
  Kd: 12.2 nM

B3: CLE45 peptide (peptide)
peptide: RRVRRGSDPIHN
notes: CLE45, mature 12-residue CLE peptide of Arabidopsis; also called synthetic CLE45 peptide; source: synthetic peptide (Peptide Specialty Laboratories, Heidelberg)
[9]
  Kd: 1110 nM
[7]
  Kd: ~120 nM
  stoichiometry N: 1
[10]
  fold weaker than with the wild-type LRR domain: ~8 fold

## YRRVRRGSDPIHN [N-terminally tyrosine-modified CLE45 peptide (Y-CLE45)]
[6]
  Kd: 12700 nM
